Patent publication US4265901A, “2-Oxybenzimidazoline compounds” (priority 1979, dated 1981)
Counter-ions that a name gives are not always drawn.

Experiments:
[1] = test system: Mustard; assay: Pre-emergence herbicide test, mustard; format: in vivo
Experimental: (§1) In this evaluation, each compound to be tested was dissolved in a 1:1 mixture of acetone and ethanol containing a small amount of Toximul R and Toximul S (each a sulfonate/nonionic blend produced by Stepan Chemical Company, Northfield, Illinois). The solution was then diluted with deionized water to a composition of the following concentrations, by weight: Plant species used as indicators of herbicidal activity were planted in galvanized pans (flats) 31.5 cm. long, 21.5 cm. wide, and 8.0 cm. deep. The bottoms of the flats had holes to facilitate drainage. The soil used was a 1:1 ratio by volume of masonry sand and shredded top soil. Flats that were to receive preemergence treatments were planted one day prior to, or on the same day treatments were applied. Flats that were to receive postemergence treatments were planted 9 days prior to treatment and placed in a growth chamber until the day of treatment. In the growth chamber, flats received 12 to 18 hours of light per day and were subject to temperatures of 75° to 85° F. The formulated test compound was applied uniformly to the indicator species with a modified DeVilbiss atomizer using air pressure of 3 to 5 psi. Each flat received 12.5 ml. of spray solution which was equal to 200 gallons/acre total spray volume. Plants were maintained in a greenhouse after treatment. Herbicidal effects of chemicals were evaluated by two injury rating systems 18 days after preemergence applications and 14 days after postemergence applications. The degree of plant injury was based on a 1 to 5 scale and a single numerical rating was assigned to each test species as follows: […]

[2] = test system: Soybean; assay: Pre-emergence herbicide test, soybean; format: in vivo
Experimental: as §1

[3] = test system: Wheat; assay: Pre-emergence herbicide test, wheat; format: in vivo
Experimental: as §1

[4] = test system: Barnyard Grass; assay: Pre-emergence herbicide test, barnyard grass; format: in vivo
Experimental: as §1

[5] = test system: Sugar Beet; assay: Pre-emergence herbicide test, sugar beet; format: in vivo
Experimental: as §1

[6] = test system: Lambsquarter; assay: Pre-emergence herbicide test, lambsquarter; format: in vivo
Experimental: as §1

[7] = test system: Cotton; assay: Pre-emergence herbicide test, cotton; format: in vivo
Experimental: as §1

[8] = test system: adult housefly; assay: Efficacy against adult housefly, calves intravenous injection (Example 17); format: in vivo, Musca domestica; conditions: daily i.v. 0.5 to 1.5 mg/kg escalating, day per line
Experimental: (§2) For the adult housefly test, 10 ml. of serum were employed to saturate a wick which was placed in a petri dish. Twenty-five chilled houseflies were placed in the dish which was then incubated for 24 hours at 27° C. and 50% relative humidity. After the end of the twenty-four hours, the efficacy of the candidate compound was determined as the percent mortality of housefly, adjusted as for blowfly by normal mortality in a control and reported according to the same scale as above.
A group of three calves each weighing about 220 kilograms was employed. The compound of Example 2, 2-hydroxy-2-(1,1,2,2-tetrafluoroethyl)-4-nitro-6-(trifluoromethyl)benzimidazoline, sodium salt, was dissolved in distilled water and the resulting solution was administered by intravenous injection. Rates of administration increased throughout the evaluation period, from 0.5 to 1.5 mg./kg. of body weight, with each dose supplied for a period of 5 days (except the 1.5 mg./kg. dose, which was administered for 6 days).
(§3) On each day of the evaluation, immediately preceding that day's injection, a sample of blood was withdrawn from each calf. The concentration of the compound in the blood was determined; and the efficacy of the compound against adult housefly and blowfly larvae was assayed by the method described in Example 15. […]

[9] = test system: Cucumber; assay: Pre-emergence herbicide test, cucumber; format: in vivo
Experimental: as §1

[10] = test system: Alfalfa; assay: Pre-emergence herbicide test, alfalfa; format: in vivo
Experimental: as §1

[11] = test system: adult housefly; assay: Efficacy against adult housefly, calves jugular infusion (Example 18); format: in vivo, Musca domestica; conditions: Evaluation I, calf 988, jugular infusion 0.66 mg/kg/day to day 10; day/hours per line
Experimental: as §2
as §3, with “15. Efficacy was reported, however, as the percent of blowfly larvae or adult housefly which was killed.” for “15.”
Three evaluations were conducted sequentially with the compound of Example 2, 2-hydroxy-2-(1,1,2,2-tetrafluoroethyl)-4-nitro-6-(trifluoromethyl)benzimidazoline, sodium salt, administered daily to calves by jugular infusion of a solution of the compound in distilled water. As described in the preceding example, blood samples were withdrawn and analyzed for concentration of the compound and efficacy against adult housefly and blowfly larvae.

[12] = test system: Jimsonweed; assay: Pre-emergence herbicide test, jimsonweed; format: in vivo
Experimental: as §1

[13] = test system: Rice; assay: Pre-emergence herbicide test, rice; format: in vivo
Experimental: as §1

[14] = test system: adult housefly; assay: Adult houseflies fed on serum of dosed guinea pigs; format: in vivo, Musca domestica; conditions: guinea pig, serum at 24 hours
Experimental: (§4) Representative compounds of the present invention were evaluated against larvae of blowfly (Phormia regina) and against adult housefly (Musca domestica). In these evaluations, the candidate compound was administered to each of two male guinea pigs weighing from about 400 grams to about 1000 grams. Administration was via the intraperitoneal route, the compound having been formulated in sesame oil. At twenty-four hours following administration of the compound, blood was withdrawn from the guinea pigs. The serum portion was isolated and blowfly larvae and adult houseflies were fed on the serum. For the blowfly assay, 10 ml. of serum were placed in a test tube with a wick onto which 50 blowfly larvae were placed. The covered test tube was incubated at 27° C. for 24 hours, at which time efficacy of the candidate compound was determined as the percent mortality of the blowfly larvae, adjusted by normal mortality in a control, and reported according to the following rating scale:
(§5) Percent mortality was determined separately for each guinea pig.
as §2

[15] = test system: blowfly larvae; assay: Blowfly larvae fed on serum of dosed guinea pigs; format: in vivo, Phormia regina; conditions: guinea pig, serum at 24 hours
Experimental: as §4, §5

O=[N+]([O-])c1cc(C(F)(F)F)cc2c1NC(O)(C(F)(F)C(F)F)N2 (stereo not drawn) [Example 2, 2-Hydroxy-2-(1,1,2,2-Tetrafluoroethyl)-4-Nitro-6-(Trifluoromethyl)Benzimidazoline, Sodium Salt, and Hydrate]
plant injury rating ([1]; 1/2 lb/A): 2S
plant injury rating ([1]; 1/4 lb/A): 1 (no injury)
plant injury rating ([1]; 1 lb/A): 4B
plant injury rating ([1]; 2 lb/A): 5D
plant injury rating ([1]; 4 lb/A): 5D
plant injury rating ([2]; 1/2 lb/A): 1 (no injury)
plant injury rating ([2]; 1/4 lb/A): 1 (no injury)
plant injury rating ([2]; 1 lb/A): 1 (no injury)
plant injury rating ([2]; 2 lb/A): 1 (no injury)
plant injury rating ([2]; 4 lb/A): 2B
plant injury rating ([3]; 1/2 lb/A): 1 (no injury)
plant injury rating ([3]; 1/4 lb/A): 1 (no injury)
plant injury rating ([3]; 1 lb/A): 1 (no injury)
plant injury rating ([3]; 2 lb/A): 1 (no injury)
plant injury rating ([3]; 4 lb/A): 3BS
plant injury rating ([4]; 1/2 lb/A): 1 (no injury)
plant injury rating ([4]; 1/4 lb/A): 1 (no injury)
plant injury rating ([4]; 2 lb/A): 1 (no injury)
plant injury rating ([4]; 4 lb/A): 2BS
plant injury rating ([5]; 1/2 lb/A): 2S
plant injury rating ([5]; 1/4 lb/A): 1 (no injury)
plant injury rating ([5]; 2 lb/A): 5D
plant injury rating ([5]; 4 lb/A): 5N
plant injury rating ([6]; 1/2 lb/A): 2S
plant injury rating ([6]; 1/4 lb/A): 1 (no injury)
plant injury rating ([6]; 2 lb/A): 5D
plant injury rating ([6]; 4 lb/A): 5D
plant injury rating ([7]; 1/2 lb/A): 1 (no injury)
plant injury rating ([7]; 1/4 lb/A): 1 (no injury)
plant injury rating ([7]; 2 lb/A): 1 (no injury)
plant injury rating ([7]; 4 lb/A): 2B
% Efficacy, Adult Housefly ([8]; calf 987): 100%
% Efficacy, Adult Housefly ([8]; calf 991): 100%
plant injury rating ([9]; 1/2 lb/A): 1 (no injury)
plant injury rating ([9]; 1/4 lb/A): 1 (no injury)
plant injury rating ([9]; 1 lb/A): 1 (no injury)
plant injury rating ([9]; 2 lb/A): 1 (no injury)
plant injury rating ([9]; 4 lb/A): 4BS
plant injury rating ([10]; 1/2 lb/A): 3SR
plant injury rating ([10]; 1/4 lb/A): 1 (no injury)
plant injury rating ([10]; 2 lb/A): 5D
plant injury rating ([10]; 4 lb/A): 5N
% Efficacy, Adult Housefly [11]: 100%
plant injury rating ([12]; 1/2 lb/A): 1 (no injury)
plant injury rating ([12]; 1/4 lb/A): 1 (no injury)
plant injury rating ([12]; 1 lb/A): 1 (no injury)
plant injury rating ([12]; 2 lb/A): 3BS
plant injury rating ([12]; 4 lb/A): 5D
plant injury rating ([13]; 1/2 lb/A): 1 (no injury)
plant injury rating ([13]; 1/4 lb/A): 1 (no injury)
plant injury rating ([13]; 1 lb/A): 1 (no injury)
plant injury rating ([13]; 2 lb/A): 2S
plant injury rating ([13]; 4 lb/A): 2SB

O=[N+]([O-])c1cc(C(F)(F)F)cc2c1NC(O)(C(F)(F)C(F)F)N2O (stereo not drawn) [Example 12, 1,2-Dihydroxy-2-(1,1,2,2-Tetrafluoroethyl)-4-Nitro-6-(Trifluoromethyl)Benzimidazoline]
plant injury rating ([1]; 1/2 lb/A): 1 (no injury)
plant injury rating ([1]; 1 lb/A): 1 (no injury)
plant injury rating ([1]; 2 lb/A): 2S
plant injury rating ([2]; 1/2 lb/A): 1 (no injury)
plant injury rating ([2]; 1 lb/A): 1 (no injury)
plant injury rating ([2]; 2 lb/A): 1 (no injury)
plant injury rating ([3]; 1/2 lb/A): 1 (no injury)
plant injury rating ([3]; 1 lb/A): 1 (no injury)
plant injury rating ([3]; 2 lb/A): 1 (no injury)
plant injury rating ([4]; 1/2 lb/A): 1 (no injury)
plant injury rating ([4]; 1 lb/A): 1 (no injury)
plant injury rating ([4]; 2 lb/A): 1 (no injury)
plant injury rating ([5]; 1/2 lb/A): 1 (no injury)
plant injury rating ([5]; 1 lb/A): 1 (no injury)
plant injury rating ([5]; 2 lb/A): 3S
plant injury rating ([6]; 1/2 lb/A): 1 (no injury)
plant injury rating ([6]; 1 lb/A): 3SB
plant injury rating ([6]; 2 lb/A): 3S
plant injury rating ([7]; 1/2 lb/A): 1 (no injury)
plant injury rating ([7]; 1 lb/A): 1 (no injury)
plant injury rating ([7]; 2 lb/A): 1 (no injury)
plant injury rating ([9]; 1/2 lb/A): 1 (no injury)
plant injury rating ([9]; 1 lb/A): 1 (no injury)
plant injury rating ([9]; 2 lb/A): 1 (no injury)
plant injury rating ([10]; 1/2 lb/A): 1 (no injury)
plant injury rating ([10]; 1 lb/A): 1 (no injury)
plant injury rating ([10]; 2 lb/A): 3SB
plant injury rating ([12]; 1/2 lb/A): 1 (no injury)
plant injury rating ([12]; 1 lb/A): 1 (no injury)
plant injury rating ([12]; 2 lb/A): 1 (no injury)
plant injury rating ([13]; 1/2 lb/A): 1 (no injury)
plant injury rating ([13]; 1 lb/A): 1 (no injury)
plant injury rating ([13]; 2 lb/A): 1 (no injury)

O=[N+]([O-])c1cc(Cl)cc2c1NC(O)(C(F)F)N2 (stereo not drawn) [Example 5, 2-Hydroxy-2-(Difluoromethyl)-4-Nitro-6-Chlorobenzimidazoline, Calcium Salt]
Efficacy Rating, Adult Housefly ([14]; 1 mg./kg. i.p.): 1 (<50% dead)
Efficacy Rating, Adult Housefly ([14]; 5 mg./kg. i.p.): 1 (<50% dead)
Efficacy Rating, Blowfly Larvae ([15]; 1 mg./kg. i.p.): 0 (none dead)
Efficacy Rating, Blowfly Larvae ([15]; 5 mg./kg. i.p.): 0 (none dead)
